Measurements: PMC10397291, “Molecular pathway and structural mechanism of human oncochannel TRPV6 inhibition by the phytocannabinoid tetrahydrocannabivarin” (Nature Communications, 2023)
Residue numbers refer to the chain shown, from its start.

Legend:
[1] = target: T1, F493A mutant hTRPV6 (Homo sapiens, UniProt Q9H1D0, F533A); assay: Fura-2 AM Ca2+ uptake, F493A mutant hTRPV6; format: cell-based
T1 construct: Full-length wild-type or mutant human TRPV6 was expressed in HEK 293S cells as described above; expressed in transfected cells; host or cells: HEK 293S GnTI- (baculovirus/BacMam transduction)
T1 sequence (Q9H1D0 41-765 F533A limits assumed): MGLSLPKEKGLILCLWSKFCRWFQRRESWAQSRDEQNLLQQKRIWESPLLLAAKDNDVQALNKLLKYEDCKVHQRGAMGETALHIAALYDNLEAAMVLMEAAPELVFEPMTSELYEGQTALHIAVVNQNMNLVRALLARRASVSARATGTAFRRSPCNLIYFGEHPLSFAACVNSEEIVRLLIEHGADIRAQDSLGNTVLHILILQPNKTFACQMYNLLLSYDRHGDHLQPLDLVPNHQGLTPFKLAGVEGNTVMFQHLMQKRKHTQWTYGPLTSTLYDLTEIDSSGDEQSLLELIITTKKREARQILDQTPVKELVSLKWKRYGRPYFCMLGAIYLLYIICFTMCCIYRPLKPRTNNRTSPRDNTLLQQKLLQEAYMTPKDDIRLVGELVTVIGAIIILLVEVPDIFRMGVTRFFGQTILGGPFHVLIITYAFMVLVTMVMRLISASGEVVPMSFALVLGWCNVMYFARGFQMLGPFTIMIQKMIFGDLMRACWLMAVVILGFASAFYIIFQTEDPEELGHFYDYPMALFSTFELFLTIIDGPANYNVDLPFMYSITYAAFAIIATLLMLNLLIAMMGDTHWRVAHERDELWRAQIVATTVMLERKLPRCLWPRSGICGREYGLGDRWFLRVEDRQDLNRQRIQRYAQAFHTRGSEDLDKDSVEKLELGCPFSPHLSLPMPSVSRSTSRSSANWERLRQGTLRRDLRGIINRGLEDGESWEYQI

[2] = target: T2, L568Q mutant hTRPV6 (Homo sapiens, UniProt Q9H1D0, L608Q); assay: Fura-2 AM Ca2+ uptake, L568Q mutant hTRPV6; format: cell-based
T2 construct: Full-length wild-type or mutant human TRPV6 was expressed in HEK 293S cells as described above; expressed in transfected cells; host or cells: HEK 293S GnTI- (baculovirus/BacMam transduction)
T2 sequence (Q9H1D0 41-765 L608Q limits assumed): T1 sequence (Q9H1D0 41-765 F533A limits assumed) with A493F, L568Q

[3] = target: T3, human TRPV6 (Homo sapiens, UniProt Q9H1D0); assay: Whole-cell patch-clamp currents, -100 to 70 mV voltage ramp, HEK 293 cells expressing hTRPV6; format: cell-based; details: 50 µM THCV, at –70 mV, n = 8
T3 construct: All functional experiments in this manuscript have been done with the full-length protein, not truncated; expressed in transfected cells; host or cells: HEK 293 (ATCC #CRL-1573), transient, plasmid with IRES-GFP
T3 sequence (Q9H1D0 41-765 limits assumed): T1 sequence (Q9H1D0 41-765 F533A limits assumed) with A493F

[4] = system: TRPV5; parameters: method as in PMID 28535500; details: rat model for osteoarthritis; cited from earlier work

Q: Which results are given for `CCCc1cc(O)c2c(c1)OC(C)(C)[C@@H]1CCC(C)=C[C@@H]21` [THCV, tetrahydrocannabivarin]?
A: IC50 [1]: 2.7 ± 0.23 µM; fraction of uninhibited channels ([1]; F493A, high THCV concentration): ~ 20%; IC50 [2]: 62.1 ± 18.2 µM; ITHCV/IControl [3]: 0.123 ± 0.029; effect on joint destruction [4]: slow the progression of joint destruction
